Experimental data: article PMC8225008, “Development of Non-Ethoxypropanoic Acid Type Cryptochrome Inhibitors with Circadian Molecular Clock-Enhancing Activity by Bioisosteric Replacement” (Pharmaceuticals, 2021)

Columns and labels:
hCRY2 = target: T1, hCRY2 (Homo sapiens, UniProt Q49AN0); assay: Surface plasmon resonance, CRY2; type: binding; conditions: SPR, His-tagged CRY2, Langmuir 1:1 model
T1 construct: GST; purchased MyBioSource; host or cells: baculovirus expression system
T1 sequence (Q49AN0 1-593): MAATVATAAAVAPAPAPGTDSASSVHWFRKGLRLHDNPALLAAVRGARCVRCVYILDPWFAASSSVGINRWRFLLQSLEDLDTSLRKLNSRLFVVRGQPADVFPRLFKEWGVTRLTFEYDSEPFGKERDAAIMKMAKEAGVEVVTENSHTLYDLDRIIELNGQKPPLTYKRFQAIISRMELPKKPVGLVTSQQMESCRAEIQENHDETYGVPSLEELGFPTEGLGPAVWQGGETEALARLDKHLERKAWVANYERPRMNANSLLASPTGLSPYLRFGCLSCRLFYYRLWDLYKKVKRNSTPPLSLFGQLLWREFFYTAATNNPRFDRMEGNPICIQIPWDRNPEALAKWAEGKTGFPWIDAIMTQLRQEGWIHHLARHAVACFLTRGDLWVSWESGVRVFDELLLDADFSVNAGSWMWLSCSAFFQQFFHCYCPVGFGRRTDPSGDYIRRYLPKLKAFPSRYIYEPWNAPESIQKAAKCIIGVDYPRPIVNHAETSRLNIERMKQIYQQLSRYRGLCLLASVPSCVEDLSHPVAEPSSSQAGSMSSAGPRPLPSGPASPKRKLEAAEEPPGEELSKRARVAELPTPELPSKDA
Protocol: We used a ProteOn XPR36 system (Bio-Rad, Hercules, CA, USA) equipped with a HTE sensor chip (high capacity tris-NTA for histidine-tagged […] capture, Bio-Rad) for surface plasmon resonance analyses. Purified target proteins (6xHis- and GST-tagged hCRY1 and hCRY2) were prepared by a baculovirus expression system (MyBioSource, San Diego, CA, USA). Phosphate buffered saline (PBS) plus 0.005% Tween 20 was used as the running buffer. The 6xHis-hCRY1 and 6xHis-hCRY2 proteins were immobilized onto separate channels of a HTE chip by injecting 210 μL protein sample (2.0 μg/mL) into flow cells (30 μL/min) to allow saturation. Serially diluted compound 2d samples (50–800 μM) were prepared in 4% DMSO in TBS-T buffer. […] Recorded resonance units (RU) were normalized and plotted against chemical concentration. […]
(§1) The EC50 values for luciferase reporter assay were calculated based on a logistic four-parametric equation using the mean values of intrinsic activation (SigmaPlot 10.0; Systat Software Inc., San Jose, CA, USA). The IC50 and t1/2 values for the cytochrome P450 inhibition assay and metabolic stability test were calculated by WinNonlin software (Pharsight, Mountain View, CA, USA). Pharmacokinetic parameters were calculated using non-compartmental analysis (WinNonlin v.8.3; Pharsight, Mountain View, CA, USA). […]

CYP2C9 = target: T2, CYP2C9 (Homo sapiens, UniProt P11712); assay: Cytochrome P450 inhibition assay (cocktail method, human liver microsomes), tolbutamide 4-methylhydroxylation; type: in vitro ADME
T2 construct: pooled human liver microsomes (HLMs, XTreme 200, XenoTech, Lenexa, KS, USA); tissue XenoTech XTreme 200; host or cells: pooled human liver microsomes
Protocol: (§2) The inhibitory effects of KS15 and compound 5d on the metabolism of five cytochrome P450 (P450) probe substrates were evaluated using previous methods with slight modifications. The following P450 probe substrates were used: phenacetin (100 μM) for CYP1A2, tolbutamide (100 μM) for CYP2C9, omeprazole (20 μM) for CYP2C19, dextromethorphan (5 μM) for CYP2D6, and midazolam (5 μM) for CYP3A. Incubation mixtures containing pooled human liver microsomes (HLMs, XTreme 200, XenoTech, Lenexa, KS, USA), P450 probe substrates, and KS15 or compound 5d (final concentrations: 0, 0.5, 2, 5, 20, and 50 μM) were preincubated for 5 min at 37 °C. […] After centrifugation at 18,000× g (5 min, 4 °C), supernatant aliquots were analyzed by liquid chromatography-tandem mass spectrometry (LC-MS/MS). […]
(§3) All metabolites and IS were separated on a Kinetex C18 column (100 mm × 2.1 mm, 2.6 μm ID., Phenomenex, Torrance, CA, USA) and analyzed using an LC-MS/MS system (LCMS 8060, Shimadzu, Tokyo, Japan) equipped with an electrospray ionization (ESI) interface. […]
as §1, with “The IC50 and t1/2 values for the cytochrome P450 inhibition assay and metabolic stability test were calculated by WinNonlin software (Pharsight, Mountain View, CA, USA).” left out

CYP3A = assay: Cytochrome P450 inhibition assay (cocktail method, human liver microsomes), midazolam 1'-hydroxylation; type: in vitro ADME; conditions: pooled human liver microsomes, probe midazolam (5 μM)
Protocol: as §2, §3
as §1, with “The IC50 and t1/2 values for the cytochrome P450 inhibition assay and metabolic stability test were calculated by WinNonlin software (Pharsight, Mountain View, CA, USA).” left out

CYP2C19 = target: T3, CYP2C19 (Homo sapiens, UniProt P33261); assay: Cytochrome P450 inhibition assay (cocktail method, human liver microsomes), omeprazole hydroxylation; type: in vitro ADME
T3 construct: pooled human liver microsomes (HLMs, XTreme 200, XenoTech, Lenexa, KS, USA); tissue XenoTech XTreme 200; host or cells: pooled human liver microsomes
Protocol: as §2, §3
as §1, with “The IC50 and t1/2 values for the cytochrome P450 inhibition assay and metabolic stability test were calculated by WinNonlin software (Pharsight, Mountain View, CA, USA).” left out

CYP2D6 = target: T4, CYP2D6 (Homo sapiens, UniProt P10635); assay: Cytochrome P450 inhibition assay (cocktail method, human liver microsomes), dextromethorphan O-demethylation; type: in vitro ADME
T4 construct: pooled human liver microsomes (HLMs, XTreme 200, XenoTech, Lenexa, KS, USA); tissue XenoTech XTreme 200; host or cells: pooled human liver microsomes
Protocol: as §2, §3
as §1, with “The IC50 and t1/2 values for the cytochrome P450 inhibition assay and metabolic stability test were calculated by WinNonlin software (Pharsight, Mountain View, CA, USA).” left out

T2 sequence (P11712 whole entry): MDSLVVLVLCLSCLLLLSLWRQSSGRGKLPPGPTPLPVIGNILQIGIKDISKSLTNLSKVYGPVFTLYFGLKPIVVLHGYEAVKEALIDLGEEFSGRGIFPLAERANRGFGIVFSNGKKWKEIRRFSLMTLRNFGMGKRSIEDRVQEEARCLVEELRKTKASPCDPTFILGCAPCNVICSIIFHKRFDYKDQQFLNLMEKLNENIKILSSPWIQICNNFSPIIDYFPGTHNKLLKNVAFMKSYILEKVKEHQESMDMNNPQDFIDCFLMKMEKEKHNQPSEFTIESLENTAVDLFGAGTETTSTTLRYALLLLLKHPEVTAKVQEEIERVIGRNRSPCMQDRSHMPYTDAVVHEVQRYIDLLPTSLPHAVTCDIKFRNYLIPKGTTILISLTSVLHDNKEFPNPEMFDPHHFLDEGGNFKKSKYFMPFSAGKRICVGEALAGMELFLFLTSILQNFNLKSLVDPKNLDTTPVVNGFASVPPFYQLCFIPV
T4 sequence (P10635 whole entry): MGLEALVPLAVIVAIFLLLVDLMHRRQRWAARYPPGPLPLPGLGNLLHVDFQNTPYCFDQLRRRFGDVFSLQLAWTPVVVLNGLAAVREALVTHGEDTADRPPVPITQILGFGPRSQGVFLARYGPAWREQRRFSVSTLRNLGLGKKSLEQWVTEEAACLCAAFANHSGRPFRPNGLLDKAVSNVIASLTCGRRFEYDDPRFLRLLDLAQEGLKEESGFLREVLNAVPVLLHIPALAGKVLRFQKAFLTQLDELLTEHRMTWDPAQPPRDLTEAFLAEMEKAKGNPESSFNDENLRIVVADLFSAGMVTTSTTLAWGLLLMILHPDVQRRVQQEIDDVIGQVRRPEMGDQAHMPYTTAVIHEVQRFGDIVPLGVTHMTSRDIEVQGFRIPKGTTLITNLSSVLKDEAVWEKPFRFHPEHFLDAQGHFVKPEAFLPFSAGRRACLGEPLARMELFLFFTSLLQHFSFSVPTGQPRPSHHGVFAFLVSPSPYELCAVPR
T3 sequence (P33261 whole entry): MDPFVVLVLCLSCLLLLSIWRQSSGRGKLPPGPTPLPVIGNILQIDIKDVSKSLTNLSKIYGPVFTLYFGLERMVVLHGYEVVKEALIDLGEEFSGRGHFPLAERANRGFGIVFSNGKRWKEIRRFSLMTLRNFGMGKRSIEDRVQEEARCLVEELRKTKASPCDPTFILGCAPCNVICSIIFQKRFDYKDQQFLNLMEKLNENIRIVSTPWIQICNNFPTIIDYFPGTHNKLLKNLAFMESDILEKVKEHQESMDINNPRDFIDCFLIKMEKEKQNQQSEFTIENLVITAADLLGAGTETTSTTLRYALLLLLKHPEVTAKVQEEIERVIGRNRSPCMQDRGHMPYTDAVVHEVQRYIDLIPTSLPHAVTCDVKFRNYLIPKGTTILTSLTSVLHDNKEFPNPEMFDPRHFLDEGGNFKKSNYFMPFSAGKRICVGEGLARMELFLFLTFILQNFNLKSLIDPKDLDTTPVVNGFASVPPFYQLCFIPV

| Compound | Kd (hCRY2) | IC50 (CYP2C9) | IC50 at 10 min (CYP3A) | IC50 (CYP2C19) | IC50 (CYP2D6) |
| --- | --- | --- | --- | --- | --- |
| CC(=NOCc1ccc([N+](=O)[O-])cc1)c1cccc(OCC(=O)O)c1 [Compound 2d, 2-(3-(1-(((4-nitrobenzyl)oxy)imino)ethyl)phenoxy)acetic acid] | 380 µM |  |  |  |  |
| COC(=O)COc1cccc(C(C)=NOCc2ccc([N+](=O)[O-])cc2)c1 [Compound 5d, Methyl 2-(3-(1-(((4-nitrobenzyl)oxy)imino)ethyl)phenoxy)acetate] |  | > 50 µM | > 50 µM | > 50 µM | > 50 µM |
